According to PMC5489165, “Identification of benzazole compounds that induce HIV-1 transcription” (PLoS ONE, 2017):

Experiments:
Type in all cases: cell-based
HIV-1 RNA in U1 cells = experiment: HIV-1 transcription in U1 cells (qRT-PCR); settings: 30 μM, 24 h, qRT-PCR (Fig 3)
Experimental: (§1) ACH-2 cells were maintained in RPMI-1640 medium without phenol red and with 10% FBS at 37°C in a 5% CO2 atmosphere. Cells were plated at 5000/well in 96-well round-bottom plated and test compounds were added in a final concentration of 0.5% DMSO, in duplicate. Cells were incubated for 24 h at 37°C, 5% CO2, then pelleted at 2000 × g for 5 min followed by washing in 0.1 ml PBS. RNA was isolated using Invitrogen PureLink 96 RNA Purification Kit with vacuum manifold per the manufacturer’s instructions, including DNase I treatment. HIV-1 transcripts were detected using TaqMan® RNA-to-CT™ 1-step kit (Applied Biosystems, Foster City, CA) and primers/probe specific to gag (SK38 forward: 5ʹ-[…]-3ʹ; SK39 reverse: 5ʹ-[…]-3ʹ; SK19 probe: 5ʹ-6FAM […] TAMRA-3ʹ) or tat (forward: 5ʹ-[…]-3ʹ; reverse: 5ʹ-[…]-3ʹ; probe: 5ʹ-6FAM […]-3ʹ). GAPDH RNA was monitored in all assays as an endogenous control for selectivity using a pre-developed TaqMan assay reagent (Applied Biosystems, Foster City, CA). RNA was quantified on an Applied Biosystems 7900HT. PCR replicates were performed for each biological replicate. Viral RNA expression was normalized to GAPDH RNA and data are expressed as the change from vehicle-only control wells.
Fig 3 Compounds 1 and 2 induce HIV-1 transcription in ACH-2 and U1. […] RNA was prepared and HIV expression was monitored by qRT-PCR. […]

[1] = test system: HIV-1 Gag (p24) in ACH-2 cells; experiment: Intracellular staining for HIV Gag in ACH-2 cells (flow cytometry); settings: for Intracellular Gag, percentage of positive cells: 16 h, 30 μM Cmpd 1 or Cmpd 2, 10 μM SAHA, 1 mM JQ1 or 10 ng/ml PMA, single experiment (Fig 4A)
Experimental: ACH-2 cells were treated as indicated and HIV-1 expression was monitored by intracellular staining for p24. Approximately, 1 × 10^6 cells were collected and washed in PBS before fixing by resuspending in 100 μl of BD Cytofix/Cytoperm (BD Biosciences, San Jose, CA) at 4°C for at least 20 min. Cells were then harvested by centrifugation and resuspended in 100 μl BD PermWash (50 mM NH4Cl, 5 mM EDTA, 0.1% saponin, 0.5% BSA, PBS and 1 mg/ml of anti-HIV-Gag PE (Clone KC57, Beckman Coulter, Brea CA). Cells were stained for 30 min, washed with the PermWash, and resuspended in FACS buffer (2 mM EDTA, 0.5% BSA, 1% paraformaldehyde in PBS). Cells were analyzed by flow cytometry using a FACSCalibur instrument (BD Biosciences). Flow cytometry was performed at the Boston University School of Medicine flow cytometry core.
Fig 4 Induction of HIV-1 expressing cells following treatment with latency reversing agents. ACH-2 cells were not treated or treated with a final concentration of 30 μM Cmpd 1 or Cmpd 2, 10 μM SAHA, 1 mM JQ1 or 10 ng/ml PMA for 16 h. Cells were stained using anti-HIV-Gag-PE and analyzed by flow cytometry. Numbers within the profiles represent the percentage of positive cells. These profiles are from a single experiment. B) Data from four independent experiments. Y-axis is mean of % p24 positive cells. * Cmpd 1 p-value […] compared to other treatments using a two-tailed t-test. TEXT PRINTED IN THE PICTURE: (A) Cmpd 1: Intracellular Gag: 65.6% | (A) Cmpd 2: Intracellular Gag: 33.9% | (A) SAHA: Intracellular Gag: 23.0% | (A) JQ1: Intracellular Gag: 16.7% | (A) PMA: Intracellular Gag: 94.2%

HIV-1 RNA in ACH-2 cells = experiment: HIV activation assay in ACH-2 model of latency (qRT-PCR); settings: 24 h; for Induction of HIV-1 transcription in ACH-2 cells (in words): 30 μM, qRT-PCR (Fig 3); for EC10X, ACH-2: concentration for 10-fold increase in HIV-1 RNA by qRT-PCR
Experimental: as §1

SMILES | Induction of HIV-1 transcription in U1 cells (in words) (HIV-1 RNA in U1 cells) | Intracellular Gag, percentage of positive cells [1] [%] | Fold more ACH-2 cells induced than with SAHA or JQ1 ([1]; SAHA or JQ1 used at active concentrations) | ACH-2 cells in which HIV-1 expression was induced ([1]; text statement (Fig 4)) | Induction of HIV-1 transcription in ACH-2 cells (in words) (HIV-1 RNA in ACH-2 cells) | EC10X, ACH-2 (HIV-1 RNA in ACH-2 cells) [nM]
Nc1ccc2[nH]c(-c3ccc(-c4nc5cc(N)ccc5o4)cc3)nc2c1 [Compound 1, 2-(4-(5-amino-1H-benzimidazol-2-yl)phenyl)benzoxazol-5-amine] | induced HIV-1 transcription | 65.6 | approximately 2 fold | over 70% | induced HIV-1 transcription | 390 ± 120
Nc1ccc2[nH]c(-c3ccc(-c4nc5ccc(N)cc5o4)cc3)nc2c1 [Compound 2] | induced HIV-1 transcription | 33.9 | – | – | induced HIV-1 transcription | 970 ± 500
